This note sets out measurements from patent US20150231199A1, “PEPTIDES AND THEIR USES” (priority 2012, published 2015).

Values after ≈ are worked out from the molar mass of the structure shown. Read-outs that look alike come from different tables or passages of the source. Positions of bridges follow the written chain, without caps; N, C: chain ends. Residues, ends and D or L forms follow the SMILES beside them. Chains are numbered I, II in the order given. *: point of attachment. Octanoyl = CCCCCCCC(=O)*

Broadly, the CC50 is the concentration that lowers cell viability or growth by half. Broadly, the MIC is the lowest concentration that inhibits growth of the organism. Low values mean greater potency, high ones weaker potency.

The nature of series [1]: in vitro. It counts as cell-based. To be noted: human. The procedure: Cells were plated at a density of 10,000 cells per well in a 96-well opaque white plate (SPL Life Sciences Inc. Korea). Test compounds of various concentrations and controls were added to appropriate wells such that the final volume is 100 μl in each well. After 4 hours of exposure to the test compounds, the plates were removed from 37° C. incubator and equilibrated to 22° C. for 30 minutes. One hundred microliters of CellTiter-Glo reagent (Promega Inc. USA) was added to each well and the ATP assay was performed according to manufacturer's instructions. Luminescence was assessed using a micro-plate reader (Tecan Infinite 200 Pro, Switzerland). The cells exposed to 1% Triton X-100 were used as a positive control. The percent cell viable of each compound was determined using the formula below (L=Luminescence detected):
% Viability=[(Lnegative controls)−(Lexperiments)]/[(Lnegative controls)−(Lpositive controls)]×100

In series [2] the test system is red blood cells (RBCs) of New Zealand white rabbits. The series can be described thus: in vitro. The format is cell-based, rabbit. The settings on record: red cells of rabbit, 1 h.
A short description of series [3]: In vivo acute systemic toxicity test. The settings on record: C57BL6, mouse, mice, read-out: Tolerate concentration. The method, then:
(§1) Wild type C57BL6 (6-8 weeks old) (20-30 gram weigh) mice purchased from National University of Singapore were used for this study. All animals were utilized after 1 week acclimatization and put in air conditioned rooms with controlled temperature (23±2° C.), 12 hours light-dark cycle and humidity (55-60%). All animals were conducted in compliance with the Association for Research in Vision and Ophthalmology (ARVO) statement for the Use of Animals in Ophthalmic, and Vision Research, the guide for the Care and Use of laboratory animals (National Research Council) and under the supervision of Singhealth Experimental Medical Centre (SEMC). To investigate the corneal toxicity, three normal and healthy wild type mice had been chosen randomly and treated with 1 mg/ml and 3 mg/ml of C8V2D in 10 mM PBS. C8V2D was applied topically 5 times/day for 4 days. Cornea clarity had been checked by slit lamp microscopy for everyday follow-up to day 4 after application. To study the acute systemic toxicity, C8V2D was administrated via intravenous and intraperitoneal routes. Two mice have been chosen for each route and moitored carefully through 24 hours to observe and record any mortality, morbidity or toxicity signs. Gross necropsy would be done on any mortality or moribund animal.

Series [4] concerns Methicillin-resistant Staphylococcus aureus (MRSA). The format is cell-based. In outline: (§2)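 MIC by CLSI broth macro-dilution: two-fold serial dilutions of peptides in cation-adjusted Mueller Hinton broth, inoculum about 5×10^5 CFU/mL. Read after 24 h incubation at 35° C. Strains: S. aureus DM4001, MRSA DM9808, P. aeruginosa ATCC23155.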
Series [5] has as its system Staphylococcus aureus. The format is cell-based. The gist of the method:
as §2

Series [6] has as its system Pseudomonas aeruginosa. It counts as cell-based. The gist of the method:
as §2

Series [7] relates to Klebsiella pneumoniae DM4299. The format is cell-based.
In series [8] the test system is Escherichia coli ATCC27922. The format is cell-based.
A short description of series [9]: In vivo topical (corneal) toxicity test. To be noted: C57BL6, mouse, topical or ocular, mice, 5 times/day for 4 days, read-out: Tolerate concentration. The method, then:
as §1

Series [10] can be described thus: in vitro. To be noted: human. It counts as cell-based. The procedure: The cytotoxicity of individual compounds screened was determined by the lactate dehydrogenase (LDH) assay. In brief, human corneal fibroblast cells were plated at a density of 10,000 cells per well in a 96-well opaque white plate (SPL Life Sciences Inc). Test compounds of various concentrations and controls were added to appropriate wells such that the final volume is 100 μl in each well. After 4 hours of exposure to the test compounds, the plates were removed from 37° C. incubator and equilibrated to 22° C. for 30 minutes. One hundred microliters of Cyto-TOX One reagent (Promega Inc. USA) was added to each well and the LDH assay was performed according to manufacturer's instructions. Fluorescence was assessed at an excitation wavelength of 560 nm and an emission wavelength of 590 nm using a micro-plate reader (Tecan Infinite 200 Pro, Switzerland). The cells exposed to 1% Triton X-100 were used as a positive control and treated as maximum releasing of LDH. The percent specific cytotoxicity of each compound was determined using the formula below (I=intensity):
% Cytotoxicity=[(Iexperiments)−(Inegative controls)]/[Ipositive controls)−(Inegative controls)]×100
The source holds these as a separate data set.

As to `CCCCCCCC(=O)N[C@@H](CCCNC(=N)N)C(=O)NCC(=O)N[C@@H](CCCNC(=N)N)C(=O)N[C@@H](CCCCN)C(=O)N[C@H](C(=O)N[C@H](C(=O)N[C@@H](CCCNC(=N)N)C(=O)N[C@@H](CCCNC(=N)N)C(=O)NCCCC[C@H](NC(=O)[C@H](CCCNC(=N)N)NC(=O)[C@H](CCCNC(=N)N)NC(=O)[C@@H](NC(=O)[C@@H](NC(=O)[C@H](CCCCN)NC(=O)[C@H](CCCNC(=N)N)NC(=O)CNC(=O)[C@H](CCCNC(=N)N)NC(=O)CCCCCCC)C(C)C)C(C)C)C(=O)N[C@@H](CCCCN)C(=O)O)C(C)C)C(C)C` [Peptide C8-V2D, (C7H15—CO—NH—RGRKVVRR)2KK] (I: Octanoyl-RGRKVVRRKK-OH / II: Octanoyl-RGRKVVRR; amide I:9-II:C), the CC50 at 4 h in [1] was above 2000 µM; in series [10], above 3000 µM. Moreover, the HC10 in [2] was above 2000 µg/mL. For the same molecule, the MTD at 24 h in [3] (Intravenous (i.v.)) turned out to be 6.25 mg/kg; in series [3] (ip, Intraperitoneal (i.p.)) it was 100 mg/kg. Moreover, the MIC was found to be 1.23 µM (≈ 3.13 µg/mL) in [4]; 2.46 µM (≈ 6.26 µg/mL) in series [5]; 2.46 µM (≈ 6.26 µg/mL) in series [6]; 2.46 µM (≈ 6.26 µg/mL) in series [7]; 4.92 µM (≈ 12.5 µg/mL) in series [8]. In addition, in series [9], the MTD at 96 h is at least 3 mg/kg.
